Experiment [1] addresses T1, 5-LO (Homo sapiens, UniProt P09917).
T1 sequence (P09917 1-674): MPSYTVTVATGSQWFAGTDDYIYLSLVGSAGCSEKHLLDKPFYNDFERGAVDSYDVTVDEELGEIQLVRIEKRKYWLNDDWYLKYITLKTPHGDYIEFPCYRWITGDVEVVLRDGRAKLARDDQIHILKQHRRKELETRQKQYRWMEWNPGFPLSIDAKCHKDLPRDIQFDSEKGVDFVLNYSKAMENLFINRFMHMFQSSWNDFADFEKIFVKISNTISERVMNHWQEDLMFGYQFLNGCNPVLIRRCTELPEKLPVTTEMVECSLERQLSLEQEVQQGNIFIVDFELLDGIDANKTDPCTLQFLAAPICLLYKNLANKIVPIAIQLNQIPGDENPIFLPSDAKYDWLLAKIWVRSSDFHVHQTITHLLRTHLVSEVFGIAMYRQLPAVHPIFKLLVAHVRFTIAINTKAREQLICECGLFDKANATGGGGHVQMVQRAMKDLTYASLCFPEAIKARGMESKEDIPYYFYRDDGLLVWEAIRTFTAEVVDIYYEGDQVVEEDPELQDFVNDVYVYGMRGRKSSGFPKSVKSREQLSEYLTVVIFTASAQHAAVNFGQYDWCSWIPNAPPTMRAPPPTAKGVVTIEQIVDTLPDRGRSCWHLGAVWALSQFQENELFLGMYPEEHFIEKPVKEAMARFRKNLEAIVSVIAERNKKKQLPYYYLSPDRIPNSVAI
The experiment in a line: 5-LO activity in a cell-free assay (isolated human recombinant 5-LO, 20 µM arachidonic acid). Type of experiment: biochemical. The arrangement: made in house; host or cells: Escherichia coli BL21 (pT3-5-LO plasmid). Particulars: residual activity at 10 µM, isolated 5-LO, 20 µM arachidonic acid, mean ± SEM, 3–4 experiments. On the procedure:
Human recombinant 5-LO was expressed in Eschericha coli BL21 transformed with pT3-5-LO plasmid at 30 °C overnight, as described elsewhere. Cells were lysed in lysis buffer containing triethanolamine (50 mM, pH 8.0), EDTA (5 mM), phenylmethanesulfonyl fluoride (1 mM), soybean trypsin inhibitor (60 µg/mL), dithiothreitol (2 mM), and lysozyme (1 mg/mL), and homogenized by sonification (3 × 15 s). 5-LO was then purified from 40,000× g supernatant (20 min, 4 °C) using an ATP-agarose column (Sigma-Aldrich, Deisenhofen, Germany), diluted with PBS buffer containing 1 mM EDTA, and immediately used for 5-LO activity assays.
To determine 5-LO activity, aliquots of purified 5-LO (0.5 µg 5-LO in 1 mL PBS plus 1 mM EDTA) were pre-incubated with the test compounds or vehicle (0.1% dimethyl sulfoxide, DMSO) on ice for 15 min, pre-warmed for 30 s at 37 °C in a water bath, and then stimulated with 20 µM AA and CaCl2 2 mM for 10 min at 37 °C. The reaction was stopped with one volume of ice-cold methanol and 5-LO products (including all-trans-isomers of LTB4 and 5-hydroperoxyeicosatetraenoic acid (5-HpETE), as well as its corresponding alcohol 5-hydroxyeicosatetraenoic acid (5-HETE)) were analyzed by reversed phase (RP)-HPLC (Elite LaChrom, VWR, Radnor, PA, USA) as previously described. In brief, acidified PBS and 200 ng of internal PGB1 standard were added and solid phase extraction using C18 RP-columns (100 mg, UCT, Bristol, PA, USA) was performed. After elution with methanol, samples were analyzed by RP-HPLC using a C-18 Radial-PAK column (Waters, Eschborn, Germany).

In experiment [2] the target is T2, cathepsin G (Homo sapiens, UniProt P08311).
T2 construct: purified cathepsin G (0.2 µg) from human neutrophils; purchased Calbiochem; host or cells: human neutrophils (natural source)
T2 sequence (P08311 21-244 limits assumed): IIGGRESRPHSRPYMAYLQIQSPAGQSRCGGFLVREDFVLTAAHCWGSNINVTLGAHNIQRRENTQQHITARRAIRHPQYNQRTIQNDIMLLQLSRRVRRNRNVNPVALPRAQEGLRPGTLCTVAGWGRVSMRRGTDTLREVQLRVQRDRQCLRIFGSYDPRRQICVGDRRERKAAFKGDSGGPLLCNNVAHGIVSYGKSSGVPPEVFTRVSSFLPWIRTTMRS
As to the kind of experiment: Cathepsin G activity in a cell-free assay (Suc-AAPF-pNA substrate). Particulars: for IC50: purified cathepsin G from human neutrophils, read-out: Cat. G IC50 (converted); for remaining activity at 10 µM: read-out: Cat. G Activity [% Control]. Type of experiment: biochemical. On the procedure:
Commercially available purified cathepsin G (0.2 µg) from human neutrophils (Calbiochem, La Jolla, CA, USA) was mixed with test compounds or DMSO (vehicle control) in 200 µL 0.1 M HEPES pH 7.4, 0.5 M NaCl, and 10% DMSO in a 96-well plate (Greiner Bio-One, Frickenhausen, Germany) and pre-incubated for 20 min at 25 °C. Then, N-Suc–Ala–Ala–Pro–Phe–pNA (Suc–AAPF–pNA) (1 mM) as substrate for cathespin G was added, and the absorbance was measured at 410 nm at 25 °C using a Victor^2 plate reader (PerkinElmer, Waltham, MA, USA).

In experiment [3] the target is T1, 5-LO. The experiment in a line: 5-LO product formation in intact human neutrophils stimulated with A23187 (cell-based). Particulars: human neutrophils; for remaining activity at 10 µM: read-out: 5-LO Activity [% Control] cell-based. The arrangement: 5-LO product formation in intact human neutrophils; endogenous in cells; host or cells: freshly isolated human peripheral blood neutrophils. On the procedure:
Neutrophils were isolated from peripheral blood (University Hospital Tübingen, Germany), collected from fasted healthy adult donors that were informed about the aim of the study and gave written consent. Leukocyte concentrates were obtained by centrifugation (4000× g, 20 min, 20 °C) of heparinized blood preparation, and neutrophils were immediately isolated as described before. Briefly, leukocyte concentrates were subjected to dextran sedimentation and centrifuged on lymphocyte separation medium (LSM 1077, PAA, Coelbe, Germany). For isolation of pelleted neutrophils, remaining erythrocytes were removed by hypotonic lysis, washed twice with ice-cold phosphate-buffered saline (PBS) and finally resuspended in PBS buffer containing 0.1% glucose and CaCl2 (1 mM) (PGC buffer).
5-LO product formation in intact human neutrophils was performed using 5 × 10^6 freshly isolated cells that were resuspended in 1 mL PGC buffer. Cells were pre-incubated with the test compounds or vehicle (0.1% DMSO) at 37 °C for 15 min prior to stimulation with 2.5 µM Ca^2+-ionophore A23187 for 10 min (37 °C). 5-LO product formation was stopped by addition of one volume of ice-cold methanol, samples were subjected to solid phase extraction after addition of 200 ng PGB1 as internal standard, and 5-LO products (LTB4, its trans-isomers and 5-HETE) were analyzed by RP-HPLC as described above.

The mark [4] stands for this setting: residual activity at 10 µM, cell-free, mean ± SEM, 3–4 experiments.
[5] abbreviates: residual activity at 10 µM, A23187, mean ± SEM, 3–4 experiments.

The structures appear in SMILES notation.

By IC50 is commonly meant the concentration at which inhibition is half-maximal. As to `C[C@H]1[C@H](C)CC[C@]2(C)CC[C@]3(C)C(=CC(=O)[C@@H]4[C@@]5(C)CC[C@@H](OC(=O)CCCC(=O)O)[C@](C)(C(=O)O)[C@@H]5CC[C@]43C)[C@H]12` [compound 25, 3-O-Glutaroyl-11-keto-β-boswellic acid], the “5-LO Activity [% Control] cell-free” value in experiment [1] is recorded as “n.i”. Also, in experiment [2] (cell-free), the IC50 is 8.6 µM. In experiment [2] (setting [4]), the remaining activity at 10 µM was 49.1 ± 11%. The “5-LO Activity [% Control] cell-based” value in experiment [3] (setting [5]) is reported as “n.i”.

A word on the inhibition: it is the percentage by which the read-out fell short of the control. As to `C[C@H]1[C@H](C)CC[C@]2(C)CC[C@]3(C)C(=CC[C@@H]4[C@@]5(C)CC[C@@H](OCC(=O)O)[C@](C)(C(=O)O)[C@@H]5CC[C@]43C)[C@H]12` [compound 26, 3-O-Carboxymethyl-β-boswellic acid], the values for the remaining activity at 10 µM in experiment [1] (read-out: 5-LO Activity [% Control] cell-free), in experiment [2] (setting [4]) and in experiment [3] (setting [5]) were 78.1 ± 7.4%, 28.8 ± 7.4% and 57.6 ± 5.3%, respectively. In experiment [2] (cell-free), the IC50 was 3.4 µM. The inhibition at 10 µM in experiment [3] (at 10 µM, read-out: inhibition of 5-LO activity in intact cells) came to 42%.

`C[C@H]1[C@H](C)CC[C@]2(C)CC[C@]3(C)C(=CC(=O)[C@@H]4[C@@]5(C)CC[C@@H](OCC(=O)O)[C@](C)(C(=O)O)[C@@H]5CC[C@]43C)[C@H]12` [compound 27, 3-O-Carboxymethyl-11-keto-β-boswellic acid]: the “5-LO Activity [% Control] cell-free” value in experiment [1] is listed as “n.i”. In addition, the “inhibition of cathepsin G” value in experiment [2] (at 10 µM) is on record as “not active”. Further, the “Cat. G Activity [% Control]” value in experiment [2] (setting [4]) is “n.i”. Moreover, the remaining activity at 10 µM in experiment [3] (setting [5]) was 68.4 ± 2.1%.

These data come from publication PMC6017322, “Triterpene Acids from Frankincense and Semi-Synthetic Derivatives That Inhibit 5-Lipoxygenase and Cathepsin G” (Molecules : A Journal of Synthetic Chemistry and Natural …, 2018).
